# From patent US9260439B2, “Dihydropyrrolopyrimidine derivatives” (PFIZER INC., priority 2014, dated 2016)
# Molecular target: truncated PI3Kα (p110α/iSH2 p85α) (Homo sapiens (Human), UniProt P42336)
# Test: PI3KA_Act fluorescence polarization kinase assay (Ki)
# Assay type: biochemical
# Conditions: 1 mM ATP
# Procedure, shortened: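 p110α/iSH2 p85α (0.5 nM) was reacted with 30 μM sonicated PIP2 in 50 mM HEPES pH 7.4, 150 mM NaCl, 5 mM MgCl2, 1 mM DTT and 0.05% CHAPS for 30 min at room temperature, then stopped with EDTA. PIP3 was detected by fluorescence polarization (GST-Grp1 PH domain/TAMRA-PIP3), and Ki came from a Morrison tight-binding fit.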
# truncated PI3Kα (p110α/iSH2 p85α), sequence (P42336 whole entry, the tested form may be a part): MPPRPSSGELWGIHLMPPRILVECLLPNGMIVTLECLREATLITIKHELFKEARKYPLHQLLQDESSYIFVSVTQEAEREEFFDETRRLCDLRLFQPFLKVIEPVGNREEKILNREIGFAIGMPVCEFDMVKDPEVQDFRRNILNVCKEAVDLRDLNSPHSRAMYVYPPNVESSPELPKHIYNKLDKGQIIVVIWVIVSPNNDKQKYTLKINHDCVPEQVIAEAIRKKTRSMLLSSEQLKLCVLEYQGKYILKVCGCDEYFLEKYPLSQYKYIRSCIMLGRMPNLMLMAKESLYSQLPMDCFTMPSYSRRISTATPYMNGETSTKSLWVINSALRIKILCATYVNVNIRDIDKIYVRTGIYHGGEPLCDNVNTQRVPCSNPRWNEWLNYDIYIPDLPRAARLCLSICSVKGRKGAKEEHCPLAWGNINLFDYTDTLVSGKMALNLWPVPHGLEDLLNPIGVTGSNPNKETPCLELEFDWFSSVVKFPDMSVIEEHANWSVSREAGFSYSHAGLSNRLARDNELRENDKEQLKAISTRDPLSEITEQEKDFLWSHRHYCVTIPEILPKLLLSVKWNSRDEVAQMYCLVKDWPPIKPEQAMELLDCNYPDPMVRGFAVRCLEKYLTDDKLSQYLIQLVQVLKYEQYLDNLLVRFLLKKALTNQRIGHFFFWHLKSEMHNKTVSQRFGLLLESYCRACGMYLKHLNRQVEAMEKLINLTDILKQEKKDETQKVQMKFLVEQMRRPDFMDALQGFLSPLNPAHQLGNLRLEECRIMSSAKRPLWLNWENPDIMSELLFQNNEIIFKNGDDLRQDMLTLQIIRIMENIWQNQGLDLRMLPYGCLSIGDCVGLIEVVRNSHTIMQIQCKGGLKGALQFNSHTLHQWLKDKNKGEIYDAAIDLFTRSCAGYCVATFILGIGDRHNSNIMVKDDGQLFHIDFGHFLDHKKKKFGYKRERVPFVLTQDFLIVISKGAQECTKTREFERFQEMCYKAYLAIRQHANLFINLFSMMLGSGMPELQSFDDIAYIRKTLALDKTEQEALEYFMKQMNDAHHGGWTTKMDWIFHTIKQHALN
row,Compound,PI3KA_Act Ki [pM]
1,"CC(C)(C)OC(=O)N1CC[C@H]1C(=O)N1CC[C@](C)(N2CCc3c(-c4cnc(N)nc4)nc(N4CCOCC4)nc32)C1 [Example 370, tert-butyl (2S)-2-({(3S)-3-[4-(2-aminopyrimidin-5-yl)-2-(morpholin-4-yl)-5,6-dihydro-7H-pyrrolo[2,3-d]pyrimidin-7-yl]-3-methylpyrrolidin-1-yl}carbonyl)azetidine-1-carboxylate]",184
2,"C[C@]1(N2CCc3c(-c4cnc(N)nc4)nc(N4CCOCC4)nc32)CCN(C(=O)[C@@H]2CCCO2)C1 [Example 371, {(3S)-3-[4-(2-aminopyrimidin-5-yl)-2-(morpholin-4-yl)-5,6-dihydro-7H-pyrrolo[2,3-d]pyrimidin-7-yl]-3-methylpyrrolidin-1-yl}[(2S)-tetrahydrofuran-2-yl]methanone]",91
3,"C[C@]1(N2CCc3c(-c4cnc(N)nc4)nc(N4CCOCC4)nc32)CCN(C(=O)[C@H]2CCCO2)C1 [Example 372, {(3S)-3-[4-(2-aminopyrimidin-5-yl)-2-(morpholin-4-yl)-5,6-dihydro-7H-pyrrolo[2,3-d]pyrimidin-7-yl]-3-methylpyrrolidin-1-yl}[(2R)-tetrahydrofuran-2-yl]methanone]",40
4,"C[C@]1(N2CCc3c(-c4cnc(N)nc4)nc(N4CCOCC4)nc32)CCN(C(=O)[C@H]2CCOC2)C1 [Example 373, {(3S)-3-[4-(2-aminopyrimidin-5-yl)-2-(morpholin-4-yl)-5,6-dihydro-7H-pyrrolo[2,3-d]pyrimidin-7-yl]-3-methylpyrrolidin-1-yl}[(3S)-tetrahydrofuran-3-yl]methanone]",28
5,"C[C@]1(N2CCc3c(-c4cnc(N)nc4)nc(N4CCOCC4)nc32)CCN(C(=O)[C@@H]2CCOC2)C1 [Example 374, {(3S)-3-[4-(2-aminopyrimidin-5-yl)-2-(morpholin-4-yl)-5,6-dihydro-7H-pyrrolo[2,3-d]pyrimidin-7-yl]-3-methylpyrrolidin-1-yl}[(3R)-tetrahydrofuran-3-yl]methanone]",27
6,"C[C@]1(N2CCc3c(-c4cnc(N)nc4)nc(N4CCOCC4)nc32)CCN(C(=O)[C@@H]2CCCN2)C1.Cl [Example 377, {(3S)-3-[4-(2-aminopyrimidin-5-yl)-2-(morpholin-4-yl)-5,6-dihydro-7H-pyrrolo[2,3-d]pyrimidin-7-yl]-3-methylpyrrolidin-1-yl}[(2S)-pyrrolidin-2-yl]methanone hydrochloride]",26
7,"C[C@]1(N2CCc3c(-c4cnc(N)nc4)nc(N4CCOCC4)nc32)CCN(C(=O)[C@@H]2CCC(=O)N2)C1 [Example 378, (5S)-5-({(3S)-3-[4-(2-aminopyrimidin-5-yl)-2-(morpholin-4-yl)-5,6-dihydro-7H-pyrrolo[2,3-d]pyrimidin-7-yl]-3-methylpyrrolidin-1-yl}carbonyl)pyrrolidin-2-one]",82
8,"C[C@]1(N2CCc3c(-c4cnc(N)nc4)nc(N4CCOCC4)nc32)CCN(C(=O)[C@H]2CCC(=O)N2)C1 [Example 379, (5R)-5-({(3S)-3-[4-(2-aminopyrimidin-5-yl)-2-(morpholin-4-yl)-5,6-dihydro-7H-pyrrolo[2,3-d]pyrimidin-7-yl]-3-methylpyrrolidin-1-yl}carbonyl)pyrrolidin-2-one]",61
9,"C[C@]1(N2CCc3c(-c4cnc(N)nc4)nc(N4CCOCC4)nc32)CCN(C(=O)C2(N)CCOC2)C1.Cl (stereo partly drawn) [Example 380, {(3S)-3-[4-(2-aminopyrimidin-5-yl)-2-(morpholin-4-yl)-5,6-dihydro-7H-pyrrolo[2,3-d]pyrimidin-7-yl]-3-methylpyrrolidin-1-yl}(3-aminotetrahydrofuran-3-yl)methanone hydrochloride]",30
10,"C[C@]1(N2CCc3c(-c4cnc(N)nc4)nc(N4CCOCC4)nc32)CCN(C(=O)[C@H]2CCCN2)C1.Cl [Example 382, {(3S)-3-[4-(2-aminopyrimidin-5-yl)-2-(morpholin-4-yl)-5,6-dihydro-7H-pyrrolo[2,3-d]pyrimidin-7-yl]-3-methylpyrrolidin-1-yl}[(2R)-pyrrolidin-2-yl]methanone hydrochloride]",<18
11,"C[C@]1(N2CCc3c(-c4cnc(N)nc4)nc(N4CCOCC4)nc32)CCN(C(=O)[C@]2(F)CCNC2)C1.Cl [Example 383, {(3S)-3-[4-(2-aminopyrimidin-5-yl)-2-(morpholin-4-yl)-5,6-dihydro-7H-pyrrolo[2,3-d]pyrimidin-7-yl]-3-methylpyrrolidin-1-yl}[(3S)-3-fluoropyrrolidin-3-yl]methanone hydrochloride]",<18
12,C[C@]1(N2CCc3c(-c4cnc(N)nc4)nc(N4CCOCC4)nc32)CCN(C(=O)[C@@]2(F)CCNC2)C1.Cl [Example 384],<18
13,"Cn1nccc1C(=O)N1CC[C@](C)(N2CCc3c(-c4cnc(N)nc4)nc(N4CCOCC4)nc32)C1 [Example 385, {(3S)-3-[4-(2-aminopyrimidin-5-yl)-2-(morpholin-4-yl)-5,6-dihydro-7H-pyrrolo[2,3-d]pyrimidin-7-yl]-3-methylpyrrolidin-1-yl}(1-methyl-1H-pyrazol-5-yl)methanone]",<18
14,"Cc1n[nH]cc1C(=O)N1CC[C@](C)(N2CCc3c(-c4cnc(N)nc4)nc(N4CCOCC4)nc32)C1 [Example 386, {(3S)-3-[4-(2-aminopyrimidin-5-yl)-2-(morpholin-4-yl)-5,6-dihydro-7H-pyrrolo[2,3-d]pyrimidin-7-yl]-3-methylpyrrolidin-1-yl}(3-methyl-1H-pyrazol-4-yl)methanone]",<18
15,"C[C@]1(N2CCc3c(-c4cnc(N)nc4)nc(N4CCOCC4)nc32)CCN(C(=O)c2cn[nH]c2)C1 [Example 387, {(3S)-3-[4-(2-aminopyrimidin-5-yl)-2-(morpholin-4-yl)-5,6-dihydro-7H-pyrrolo[2,3-d]pyrimidin-7-yl]-3-methylpyrrolidin-1-yl}(1H-pyrazol-4-yl)methanone]",<18
16,"C[C@]1(N2CCc3c(-c4cnc(N)nc4)nc(N4CCOCC4)nc32)CCN(C(=O)c2ncc[nH]2)C1 [Example 388, {(3S)-3-[4-(2-aminopyrimidin-5-yl)-2-(morpholin-4-yl)-5,6-dihydro-7H-pyrrolo[2,3-d]pyrimidin-7-yl]-3-methylpyrrolidin-1-yl}(1H-imidazol-2-yl)methanone]",<18
17,"C[C@]1(N2CCc3c(-c4cnc(N)nc4)nc(N4CCOCC4)nc32)CCN(C(=O)c2cc[nH]n2)C1 [Example 389, {(3S)-3-[4-(2-aminopyrimidin-5-yl)-2-(morpholin-4-yl)-5,6-dihydro-7H-pyrrolo[2,3-d]pyrimidin-7-yl]-3-methylpyrrolidin-1-yl}(1H-pyrazol-3-yl)methanone]",<18
18,"Cn1ccnc1C(=O)N1CC[C@](C)(N2CCc3c(-c4cnc(N)nc4)nc(N4CCOCC4)nc32)C1 [Example 390, {(3S)-3-[4-(2-aminopyrimidin-5-yl)-2-(morpholin-4-yl)-5,6-dihydro-7H-pyrrolo[2,3-d]pyrimidin-7-yl]-3-methylpyrrolidin-1-yl}(1-methyl-1H-imidazol-2-yl)methanone]",84
19,"Cn1ccc(C(=O)N2CC[C@](C)(N3CCc4c(-c5cnc(N)nc5)nc(N5CCOCC5)nc43)C2)n1 [Example 391, {(3S)-3-[4-(2-aminopyrimidin-5-yl)-2-(morpholin-4-yl)-5,6-dihydro-7H-pyrrolo[2,3-d]pyrimidin-7-yl]-3-methylpyrrolidin-1-yl}(1-methyl-1H-pyrazol-3-yl)methanone]",22
20,"CNC(=N)N1CC[C@](C)(N2CCc3c(-c4cnc(N)nc4)nc(N4CCOCC4)nc32)C1 [Example 392, (3S)-3-[4-(2-aminopyrimidin-5-yl)-2-(morpholin-4-yl)-5,6-dihydro-7H-pyrrolo[2,3-d]pyrimidin-7-yl]-N,3-dimethylpyrrolidine-1-carboximidamide]",101
21,"CCNC(=O)N1CC[C@@](C)(N2CCc3c(-c4cnc(N)nc4)nc(N4CCOCC4)nc32)C1 [Example 393, (3R)-3-[4-(2-aminopyrimidin-5-yl)-2-(morpholin-4-yl)-5,6-dihydro-7H-pyrrolo[2,3-d]pyrimidin-7-yl]-N-ethyl-3-methylpyrrolidine-1-carboxamide]",85
22,"CC(C)NC(=O)N1CC[C@@](C)(N2CCc3c(-c4cnc(N)nc4)nc(N4CCOCC4)nc32)C1 [Example 394, (3R)-3-[4-(2-aminopyrimidin-5-yl)-2-(morpholin-4-yl)-5,6-dihydro-7H-pyrrolo[2,3-d]pyrimidin-7-yl]-3-methyl-N-(propan-2-yl)pyrrolidine-1-carboxamide]",112
23,"CC(C)NC(=O)N1CC[C@](C)(N2CCc3c(-c4cnc(N)nc4)nc(N4CCOCC4)nc32)C1 [Example 395, (3S)-3-[4-(2-aminopyrimidin-5-yl)-2-(morpholin-4-yl)-5,6-dihydro-7H-pyrrolo[2,3-d]pyrimidin-7-yl]-3-methyl-N-(propan-2-yl)pyrrolidine-1-carboxamide]",352
24,"CC(C)(C)NC(=O)N1CC[C@@](C)(N2CCc3c(-c4cnc(N)nc4)nc(N4CCOCC4)nc32)C1 [Example 396, (3R)-3-[4-(2-aminopyrimidin-5-yl)-2-(morpholin-4-yl)-5,6-dihydro-7H-pyrrolo[2,3-d]pyrimidin-7-yl]-N-tert-butyl-3-methylpyrrolidine-1-carboxamide]",121
25,"CC(C)(C)NC(=O)N1CC[C@](C)(N2CCc3c(-c4cnc(N)nc4)nc(N4CCOCC4)nc32)C1 [Example 397, (3S)-3-[4-(2-aminopyrimidin-5-yl)-2-(morpholin-4-yl)-5,6-dihydro-7H-pyrrolo[2,3-d]pyrimidin-7-yl]-N-tert-butyl-3-methylpyrrolidine-1-carboxamide]",101
